Laboratory results: the supplement of paper PMC10878532, “Sperm Toolbox—A selection of small molecules to study human spermatozoa” (PLOS ONE, 2024)
Structures can show the parent of a compound that is named as a salt.

How the values were obtained:
human spermatozoa [1] = experiment: viability fold change, 1 - (PI-positive fraction / DMSO median); higher = more of the measured sperm population than DMSO, for viability, fewer PI-positive (dead) cells than DMSO; details: incubation time: 3h, non-capacitating
human spermatozoa [2] = experiment: progressively motile sperm, percent change vs DMSO (non-capacitating); higher = more of the measured sperm population than DMSO, for viability, fewer PI-positive (dead) cells than DMSO; extreme values may be limits of the assay
HepG2 = HepG2 toxicity (resazurin), effect normalised to DMSO (DMSO = 0); higher = more features changed / larger toxic effect; details: incubation time: 70h incubation
human spermatozoa [3] = experiment: total motile sperm, percent change vs DMSO (non-capacitating); higher = more of the measured sperm population than DMSO, for viability, fewer PI-positive (dead) cells than DMSO
HeLa [4] = experiment: Cell Painting percent induction (share of features beyond 2 z-scores vs DMSO); higher = more features changed / larger toxic effect; extreme values may be limits of the assay; details: incubation time: 24h incubation
HeLa [5] = experiment: HeLa toxicity: nuclei-count effect normalised to DMSO (DMSO = 0); higher = more features changed / larger toxic effect; details: incubation time: 24h incubation
human spermatozoa [6] = experiment: hyperactivated motile sperm, percent change vs DMSO (capacitating); higher = more of the measured sperm population than DMSO, for viability, fewer PI-positive (dead) cells than DMSO; details: incubation time: 30min incubation
human spermatozoa [7] = experiment: progressively motile sperm, percent change vs DMSO (capacitating); higher = more of the measured sperm population than DMSO, for viability, fewer PI-positive (dead) cells than DMSO; details: incubation time: 30min incubation
human spermatozoa [8] = experiment: change in acrosome-reacted (PNA+) sperm vs DMSO, no agonist (capacitating); higher = more of the measured sperm population than DMSO, for viability, fewer PI-positive (dead) cells than DMSO; details: incubation time: 3h
human spermatozoa [9] = experiment: acrosome-reacted (PNA+) sperm after agonist cocktail, percent change vs DMSO (capacitating); higher = more of the measured sperm population than DMSO, for viability, fewer PI-positive (dead) cells than DMSO; details: incubation time: 3h, capacitating + agonist cocktail 1h
[10] = incubation time: 10min incubation, 9.99 µM
[11] = incubation time: 10min incubation, 29.9 µM
[12] = incubation time: 3h incubation, 9.99 µM
[13] = incubation time: 3h incubation, 29.9 µM
[14] = incubation time: 6h incubation, 9.99 µM
[15] = incubation time: 6h incubation, 29.9 µM
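Throughout, for progressively motile sperm, percent change vs DMSO (non-capacitating): pooled live human sperm from at least 3 donors, tracked by automated microscopy in 0.5 s time-lapse movies, compounds at 10 and 30 µM, versus median of 16 DMSO wells per plate.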
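Throughout, for total motile sperm, percent change vs DMSO (non-capacitating): sperm pooled from at least 3 donors, tracked in 0.5 s time-lapse movies by automated microscopy after 10 min, 3 h or 6 h with compound at 10 or 30 µM.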

| Structure (SMILES) | viability fold change (human spermatozoa [1]; 9.99 µM) | viability fold change (human spermatozoa [1]; 29.9 µM) | progressively motile sperm (human spermatozoa [2]; [10]) | progressively motile sperm (human spermatozoa [2]; [11]) | progressively motile sperm (human spermatozoa [2]; [12]) | progressively motile sperm (human spermatozoa [2]; [13]) | progressively motile sperm (human spermatozoa [2]; [14]) | progressively motile sperm (human spermatozoa [2]; [15]) | HepG2 toxicity (HepG2; 10 µM) | HepG2 toxicity (HepG2; 30 µM) | total motile sperm (human spermatozoa [3]; [10]) | total motile sperm (human spermatozoa [3]; [11]) | total motile sperm (human spermatozoa [3]; [12]) | total motile sperm (human spermatozoa [3]; [13]) | total motile sperm (human spermatozoa [3]; [14]) | total motile sperm (human spermatozoa [3]; [15]) | Cell Painting percent induction (HeLa [4]; 9.99 µM) | Cell Painting percent induction (HeLa [4]; 29.9 µM) | HeLa toxicity: nuclei-count effect normalised (HeLa [5]; 9.99 µM) | HeLa toxicity: nuclei-count effect normalised (HeLa [5]; 29.9 µM) | hyperactivated motile sperm (human spermatozoa [6]; 9.99 µM) | hyperactivated motile sperm (human spermatozoa [6]; 29.9 µM) | progressively motile sperm (human spermatozoa [7]; 9.99 µM) | progressively motile sperm (human spermatozoa [7]; 29.9 µM) | change in acrosome-reacted (human spermatozoa [8]; 9.99 µM) | change in acrosome-reacted (human spermatozoa [8]; 29.9 µM) | acrosome-reacted (human spermatozoa [9]; 9.99 µM) | acrosome-reacted (human spermatozoa [9]; 29.9 µM) |
| --- | --- | --- | --- | --- | --- | --- | --- | --- | --- | --- | --- | --- | --- | --- | --- | --- | --- | --- | --- | --- | --- | --- | --- | --- | --- | --- | --- | --- |
| COc1cc(C(=O)N2CCC(N3CCN(C)CC3)CC2)ccc1Nc1ncc2c(n1)N(C)c1ccccc1C(=O)N2C [LRRK2-IN-1] | -0.856 | -0.909 | 31.1% | 27.8% | 57.2% | 50.6% | 62.8% | 43.3% | 7.52% | 56.2% | -2.77% | -1.16% | -9.9% | -13% | -11.9% | -17.6% | 5.8% | 10.2% | 44.2% | 53.9% | 224% | 215% | 7.96% | 4.98% | 1.4% | 1.43% | 58.9% | 103% |
| CC(C)c1ccc2c(c1)CC[C@H]1[C@](C)(CN)CCC[C@]21C [Leelamine hydrochloride] | -1.89 | -2.79 | 15.1% | -12.8% | 51.8% | -74.2% | 59.5% | -84.3% | 102% | 103% | -0.495% | -12.1% | 1.52% | -51.7% | -1.74% | -63.5% | 25.1% | 36.4% | 88.2% | 98.4% | -31% | -87.5% | 4.41% | -53.6% | 5.38% | 14.4% | 41.7% | 60.2% |
| C[C@]1(O)C[C@@H](c2nc(-c3ccc4ccc(-c5ccccc5)nc4c3)c3c(N)nccn32)C1 [Linsitinib] | -1.24 | -1.48 | 43.2% | 45.9% | 71.3% | 65.1% | 93.9% | 79.2% | -2.88% | 27.2% | 2.7% | 5.16% | -8.39% | -6.08% | -8.05% | -11.2% | 1.62% | 0.144% | 2.74% | 25% | 219% | 114% | 10.2% | 14.7% | 1.26% | 1.92% | 115% | 113% |
| CCCCCCCCCCCCCCCCOCC(COCC(F)(F)F)OP(=O)([O-])OC (centres undefined) [MJ33] | -0.678 | -0.975 | 3.5% | 11.9% | -6.92% | -2.7% | -4.8% | -4.44% | -0.425% | 2.58% | 2.25% | 4.52% | -13.2% | 0.791% | -9.12% | -4.03% | 0% | 0.036% | 6.41% | 1% | 21.6% | 9.77% | 10.8% | 15.1% | 0.541% | 1% | 6.57% | 19.6% |
| COCC(=O)O[C@]1(CCN(C)CCCc2nc3ccccc3[nH]2)CCc2cc(F)ccc2[C@@H]1C(C)C [Mibefradil] | -1.48 | -2.28 | 1.95% | 0.528% | 16.4% | 25.7% | 27.4% | 23.4% | 14% | 103% | -1.6% | 0.488% | -3.96% | -8.13% | -7.2% | -14.3% | 5.66% | 43.7% | 35.6% | 97.9% | -13.7% | -48.1% | 3.94% | 6.24% | 0.323% | 1.49% | 18.3% | 38.1% |
| CCCCN1C[C@@H](O)[C@H](O)[C@H](O)[C@@H]1CO [Miglustat] | -0.2 | 0.248 | -0.816% | 3.26% | 9.63% | 8.04% | 8.15% | 7.52% | 5.75% | -4.38% | -1.47% | 0.804% | -1.56% | -0.192% | -5.48% | -3.6% | 0% | 0% | 0.0668% | -3.87% | 12.2% | 2.46% | 5.12% | 9.04% | -0.0821% | -0.0793% | -0.571% | -6.96% |
| CC(C)[C@H]1c2ccc(F)cc2CC[C@@]1(CCN(C)CCCc1nc2ccccc2[nH]1)OC(=O)C1CC1 [NNC 55-0396 dihydrochloride] | -1.31 | -2.3 | 5.26% | -62.2% | 16.3% | -100% | 7.86% | -100% | 102% | 103% | 0.104% | -33.4% | -15% | -93.6% | -24.8% | -93% | 27.1% | 14.2% | 97.3% | 95.5% | -62% | -82.2% | 4.2% | -98.6% | 4.14% | 29.2% | 52.4% | 51.1% |
| Nc1ncnc2c1c(-c1cccc(OCc3ccccc3)c1)cn2[C@H]1C[C@@H](CN2CCC2)C1 [NVP-AEW541] | -0.326 | -0.581 | 6.28% | 11.5% | 31.9% | 34.1% | 48.5% | 31.5% | 82.9% | 103% | -0.708% | -2.42% | 2.29% | -8.07% | -0.444% | -10.1% | 8.93% | 57.6% | 27.7% | 99.5% | 16.7% | -13.9% | 1.09% | 5.49% | 0.03% | 0.662% | 10.6% | 31.6% |
